Assay results: patent US20220280594A1, “APPLICATION OF POLYPEPTIDE OR DERIVATIVE THEREOF” (CHENGDU HUITAI BIOMEDICINE CO., LTD., priority 2019, published 2022)
Ends that are not written are not given here. PEG = not defined here

Legend:
Format in all cases: cell-based
[1] = test system: human pancreatic cancer cells (PANC-1); test: scratch assay, migration of PANC-1 cells; conditions: PANC-1, 10 μM, 48 hours; control group 66.65 ± 3.37
Procedure, shortened: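 PANC-1 monolayers were scratched, then cultured for 48 h with 10 μM test compound in 2% FBS medium, in three parallel wells per group against a PBS control. Migration rate (%) was calculated as (original minus current scratch width) / original width × 100, from imaged wells.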

[2] = test system: human pancreatic cancer cells (PANC-1); test: transwell invasion assay, PANC-1 cells; conditions: PANC-1 transwell invasion, 10 μM, 24 hours; control group 727 ± 68
Procedure, shortened: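 Serum-free PANC-1 cells were seeded in matrigel-coated upper chambers with complete medium below. After 4-5 hours at 37° C., peptide was added at 10 μM final. Following 24 hours, invaded cells on the lower membrane surface were fixed, crystal violet-stained, imaged and counted against untreated controls.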

[3] = test system: human liver adenocarcinoma cells (SK-HEP-1); test: transwell invasion assay, SK-HEP-1 cells; conditions: SK-HEP-1 transwell invasion, 10 μM, 24 hours; control group 767 ± 91
Procedure, shortened: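 Serum-free SK-HEP-1 cells were seeded in matrigel-coated upper chambers over complete medium. After 4-5 h, peptide was added to the upper chamber at 10 μM final. Following 24 h at 37° C., invaded cells were fixed, crystal violet-stained, imaged and counted.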

[4] = test system: human liver cancer cells (HepG2); test: scratch assay, migration of HepG2 cells; conditions: HepG2, 10 μM, 48 hours; control group 71.01 ± 6.63
Procedure, shortened: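 HepG2 monolayers scratched, then cultured 48 h in 2% FBS medium with test polypeptides at 10 μM versus PBS control, triplicate wells. Migration rate (%) computed from original versus current scratch width in images.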

[5] = test system: human breast cancer cells (MDA-MB-231); test: scratch assay, migration of MDA-MB-231 cells; conditions: MDA-MB-231, 10 μM, 48 hours; control group 36.19 ± 5.15
Procedure, shortened: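 MDA-MB-231 monolayers (1-2×10^5 cells/well) were scratched, then kept 48 h in medium with 2% FBS containing polypeptide at 10 μM, with a PBS control, in triplicate wells. Migration rate (%) was taken from scratch width: (original − current)/original ×100.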

[6] = test system: human breast cancer cells (MCF-7); test: scratch assay, migration of MCF-7 cells; conditions: MCF-7, 10 μM, 48 hours; control group 30.97 ± 1.79
Procedure, shortened: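 MCF-7 monolayers scratched, then cultured 48 hours in 2% FBS medium with test peptide at 10 μM versus PBS control, triplicate wells. Migration rate (%) = (original − current scratch width)/original width × 100, measured from images.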

[7] = test system: human melanoma cells (A375); test: scratch assay, migration of A375 cells; conditions: A375, 10 μM, 48 hours; control group 44.03 ± 6.21
Procedure, shortened: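 Monolayers scratched, washed with PBS and cultured 48 hours in 2% FBS medium with polypeptides N1-N54 at 10 μM or PBS control, three wells per group. Migration rate (%) = (original − current scratch width)/original width×100, from imaged scratch widths.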

[8] = test system: human pharyngeal squamous-cell carcinoma cells (Fadu); test: scratch assay, migration of Fadu cells; conditions: 10 μM, 48 hours, control group 28.76 ± 4.08
Procedure, shortened: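 Confluent Fadu monolayers scratched, then cultured 48 h with 10 μM polypeptide in medium with 2% FBS; PBS control, triplicate wells. Migration rate (%) = (original − current scratch width)/original width × 100, from ≥3 images per well.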

[9] = test system: human colon cancer cells (HCT-116); test: scratch assay, migration of HCT-116 cells; conditions: HCT-116, 10 μM, 48 hours; control group 47.78 ± 6.07
Procedure, shortened: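 Confluent HCT-116 monolayers were scratched, washed and cultured 48 h in 2% FBS medium with peptide at 10 μM versus PBS control, triplicate wells. Migration rate (%) = (original minus current scratch width)/original width × 100, from at least 3 images per well.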

[10] = test system: human prostate cancer cells (22RV1); test: scratch assay, migration of 22RV1 cells; conditions: 22RV1, 10 μM, 48 hours; control group 25.41 ± 5.01
Procedure, shortened: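 22RV1 monolayers (seeded 1-2×10^5 cells/well) were scratched, washed, then given 2% FBS medium with 10 μM polypeptide or PBS, triplicate wells, for 48 h. Migration rate (%) = (original − current scratch width)/original width ×100, from ≥3 images per well.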

Substance	Migration rate (%) (mean ± SD, P) [1]	Number of cells (mean ± SD, P), invaded cells [2]	Number of cells (mean ± SD, P), invaded cells [3]	Migration rate (%) (mean ± SD, P) [4]	Migration rate (%) (mean ± SD, P) [5]	Migration rate (%) (mean ± SD, P) [6]	Migration rate (%) (mean ± SD, P) [7]	Migration rate (%) (mean ± SD, P) [8]	Migration rate (%) (mean ± SD, P) [9]	Migration rate (%) (mean ± SD, P) [10]
N40: SEQ ID NO: 1 with deletion of positions 1-5 and 15-18, PEG at the amino terminal, two amino acids added at the carboxyl terminal ({PEG}-LAKENVTQDRC; reading uncertain)	13.24 ± 8.56,*** %	273 ± 21,****	123 ± 26,****	32.55 ± 4.09,** %	21.12 ± 4.15,* %	4.36 ± 1.35,*** %	6.47 ± 1.39,*** %	10.25 ± 2.76,** %	2.19 ± 1.45,*** %	6.65 ± 2.54,** %
N6: SEQ ID NO: 1 with deletion of four amino acids at the carboxyl terminal (positions 15-18) (YRVRFLAKENVTQD)	36.66 ± 5.57,** %	110 ± 5,****	145 ± 29,****	16.65 ± 6.70,*** %	17.42 ± 4.98,* %	15.69 ± 4.09,* %	11.22 ± 1.65,*** %	11.34 ± 2.04,** %	18.13 ± 2.68,** %	12.31 ± 2.85,* %
N14: SEQ ID NO: 1 with deletion of positions 1-5 and addition of one amino acid at the carboxyl terminal (LAKENVTQDAEDNC)	26.63 ± 6.67,*** %	157 ± 37,****	329 ± 54,***	48.61 ± 4.63,** %	14.59 ± 5.36,* %	7.05 ± 1.40,*** %	6.28 ± 1.12,*** %	12.90 ± 2.47,** %	12.24 ± 2.32,*** %	14.06 ± 2.37,* %
N4: SEQ ID NO: 1 with deletion of positions 15-18 and positions 1-3 (RFLAKENVTQD)	19.04 ± 8.54,*** %	37 ± 4,****	411 ± 75,**	25.37 ± 6.11,*** %	21.44 ± 2.59,* %	13.6 ± 2.28,** %	5.06 ± 2.32,*** %	14.32 ± 2.67,** %	25.48 ± 2.79,** %	13.44 ± 3.24,* %
N28: SEQ ID NO: 1 with deletion of positions 1-2 and 18 and PEG modification at the amino terminal ({PEG}-VRFLAKENVTQDAED; reading uncertain)	32.25 ± 5.40,** %	247 ± 15,****	214 ± 31,****	12.25 ± 8.40,*** %	9.36 ± 1.8,** %	14.83 ± 5.38,* %	10.80 ± 2.66,*** %	15.23 ± 3.59,* %	9.19 ± 3.22,*** %	15.63 ± 2.59,* %
